Measurements: patent US11673853B2, “Small molecule AMPK activators” (University of Pittsburgh—Of the Commonwealth System of …, priority 2016, dated 2023)
≈ marks a conversion by molar mass, not a printed value.

Legend:
Diet-induced obese mice = Diet-induced obese mice study, 14 days dosing; assay type: in vivo; conditions: once daily for 14 days; BC1618 8 or 40 mg/kg/d
Protocol: FIG. 12. Diet-induced obese mice were fed a high-fat diet for 19 weeks and then injected with vehicle or drug once daily for 14 days. Daily body weights (in grams) of the mice are shown.
Diet-induced obese mice arrived from Jackson Labs and recovered two weeks in satellite housing before study. Mice were 25 weeks old and fed a high-fat diet for 19 weeks at the time of study. Body weight, fat and lean mass were measured and mice were grouped in order to match body weights at ˜46.5 g average per group prior to study. Following the acute dosing trial, mice were injected with vehicle or drug 1× daily between noon and 2 pm for 14 days (BC1618-L (low dose)=8 mg/kg/d, BC1618-H (high dose)=40 mg/kg/d). Body weight was recorded daily (FIGS. 12-15). FIG. 12 and FIG. 13 show body weight in grams and FIG. 14 and FIG. 15 show body weight as a percentage of body weight on day 0 (DO).
FIGS. 16-19 show the change (A) in body weight (BW) from day 0 to day 14 expressed as change in grams (FIG. 16 and FIG. 17) or as percent change from day 0 (FIG. 18 and FIG. 19).
Body composition was measured at DO in the body weight matched animals and again at day 14 (D14). Data in FIGS. 20-23 represent the change in fat mass from DO to D14 expressed as grams (FIG. 20 and FIG. 21) or as percent change (FIG. 22 and FIG. 23).
Data in FIGS. 24-27 represent the change in lean mass from DO to D14 expressed as grams (FIG. 24 and FIG. 25) and as percent change (FIG. 26 and FIG. 27). Overall there appears to be a modest effect of vehicle and drug to reduce lean mass over 14 days, but no differences between groups. Changes in BW over 14 days therefore reflect changes in fat mass and not lean mass.

phospho-AMPK = phospho-AMPK / p-ACC immunoblotting in Beas2B cells (in vitro studies); assay type: cell-based, Human
Protocol: FIG. 3. (A) Beas2b cells were cultured in DMEM 2% media with glucose for 24 h before switching to glucose-free media. Cells were then exposed to either DMSO or Compound 1 (2 μM) in a time course before being collected for immunoblotting. (B) Beas2B cells were exposed to Compound 1 for 18 h at various doses before being collected for immunoblotting. (C) Beas2b cells were cultured in DMEM 2% media with glucose for 24 h before switching to glucose-free media. Cells were then exposed to AICAR at various doses with or without Compound 1 co-treatment. After 18 h, cells were collected before being assayed by immunoblotting.
FIG. 4. (A) Beas2b cells were cultured in DMEM 2% media with glucose for 24 h before switching to glucose-free media. Cells were then exposed to Compound 12 in a dose dependent manner for 18 h before being collected for immunoblotting. (B) Beas2b cells were cultured in DMEM 2% media with glucose for 24 h before Compound 12 treatment in a dose dependent manner. After 18 h, cells were then collected for immunoblotting. (C) Beas2b cells were cultured in DMEM 2% media with glucose for 24 h before switching to glucose-free media. Cells were then exposed to Compound 12 for 18 h before being collected for mRNA analysis. (D) 50K PBMC cells were cultured in 96 well plates before being exposed to Compound 12 for 4 h. Cells were then treated with LPS (10 ng/ml) for additional 2 h. Media were then collected and IL-1b concentration was determined by ELISA.
FIG. 9. (A) Beas2b cells were cultured in DMEM 2% media with glucose for 24 h before switching to glucose-free media. Cells were then exposed to Compound 23 or metformin in a dose dependent manner for 18 h before being collected for immunoblotting. (B) Beas2b cells were cultured in DMEM 2% media with glucose for 24 h before switching to glucose-free media and treated with Compound 12 or Compound 23 in a dose dependent manner. After 6 h, cells were then collected for immunoblotting. (C) Beas2b cells were cultured in DMEM 2% media with glucose for 24 h before switching to glucose-free media and treated with Compound 12 or Compound 23 in a dose dependent manner. After 18 h, cells were then collected for immunoblotting. (D) Beas2b cells were transfected with AMPK phospho mimic T172D or phospho dead T172A mutant for 24 h. Cells were then switched to glucose-free media and exposed to Compound 23 in a dose or time dependent manner before being collected for immunoblotting. (E) Beas2b cells were transfected with control siRNA or Fbxo48 siRNA for 48 h before switching to glucose-free media. Cells were then exposed to Compound 23 in a dose dependent manner before being collected for immunoblotting. (F) Compound 23 chemical structure.
Compound 1 was studied in in vitro assays using Beas2B cells. […]
Compound 23 was tested in in vitro studies using Beas2B cells and compared with metformin.

[1] = system: High-fat diet fed C57BL6J mice; experiment: Acute oral dosing study in high-fat diet fed mice; assay type: in vivo
pAMPK = pAMPK immunoblotting in Beas2B cells (Table 1); assay type: cell-based; conditions: Homo sapiens, BEAS-2B, DMEM media without glucose, compounds 18 h
Protocol: Additional compounds in Table 1 were or can be prepared according to the above-described Examples. Human bronchial epithelial cells (Beas2B) were seeded in 6-well plates for 18 h. Cells were then exposed to DMEM media without glucose and compounds at various concentrations for an additional 18 h before being collected for immunoblotting.

With `NC(=O)c1ncn([C@@H]2O[C@H](CO)[C@@H](O)[C@H]2O)c1N` [AICAR, reference compound] the “body weight loss (daily body weight)” value (Diet-induced obese mice) was “effect of AICAR and BC1618 on body weight loss”, the “change in body weight from day 0 to day 14” value (Diet-induced obese mice) was “an effect due to AICAR or BC1618” and the “change in fat mass from D0 to D14” value (Diet-induced obese mice) was “apparent additive effect”. The “concentration at which phospho-AMPK levels increased” value (phospho-AMPK; Beas2b, glucose-free media, 18 h, dose dependent) was roughly 0.05 mM, the “glucose tolerance (intraperitoneal glucose tolerance test)” value ([1]; 1 g/kg body weight glucose, data not shown) was “no difference in glucose tolerance” and the “body weight at the time of study” value ([1]; two oral doses (AICAR 200 mg/kg, BC1618 20 mg/kg)) was “no differences in body weight”. The “reduction of fasting plasma glucose compared to vehicle” value ([1]; two oral doses (AICAR 200 mg/kg, BC1618 20 mg/kg), 2 h after second dose, P=0.08) was 10%.
With `OC(COc1ccc(OCC(O)CN(Cc2ccccc2)Cc2ccccc2)cc1)CN(Cc1ccccc1)Cc1ccccc1` (centres unmarked) [Compound 1] the “concentration leading to a drastic increase in phospho-AMPK levels” value (phospho-AMPK; Beas2B cells, 18 h, various doses) was 2 µM, the “phospho-AMPK levels compared to vehicle control” value (phospho-AMPK; Beas2b, glucose-free media, 2 μM, time course, within 2 h) was “drastically increased” and the “phospho-AMPK and downstream p-ACC levels versus AICAR” value (phospho-AMPK; Compound 1 alone at 4 μM, AICAR at 0.25 mM) was “well exceeding AICAR treatment at 0.25 mM”. The “effect of co-treatment with AICAR on phospho-AMPK” value (phospho-AMPK; Compound 1 at 4 μM with AICAR at various doses, 18 h) was “completely saturated AICAR effects” and the IC50 (pAMPK) was 1 to 10 µg/mL (≈ 1.62 to 16.2 µM).
`COCCN(Cc1ccc(OCC(O)CN(C)Cc2ccccc2)cc1)C(C)C` (centres unmarked) [Compound 2] was tested, and the IC50 (pAMPK) was greater than 10 µg/mL.
`CN(Cc1ccccc1)CC(O)COc1ccc(CNC2CC2)cc1` (centres unmarked) [Compound 3] showed an IC50 (pAMPK) greater than 10 µg/mL.
`Cc1ccccc1CNCc1ccc(OCC(O)CN(C)Cc2ccccc2)cc1` (centres unmarked) [Compound 4] gave an IC50 (pAMPK) greater than 10 µg/mL.
Work on `Cc1ccc(OCC(O)CN(Cc2ccccc2)Cc2ccccc2)cc1` (centres unmarked) [Compound 5] yielded an IC50 (pAMPK) of 1 to 10 µg/mL (≈ 2.77 to 27.7 µM).
`COc1ccc(OCC(O)CN(Cc2ccccc2)Cc2ccccc2)cc1` (centres unmarked) [Compound 6] showed an IC50 (pAMPK) of 1 to 10 µg/mL (≈ 2.65 to 26.5 µM).
`OC(COc1ccc2ccccc2c1)CN(Cc1ccccc1)Cc1ccccc1` (centres unmarked) [Compound 7] gave an IC50 (pAMPK) of 1 to 10 µg/mL (≈ 2.52 to 25.2 µM).
In the case of `OC(CNCc1ccccc1)COc1ccc(OCC(O)CNCc2ccccc2)cc1` (centres unmarked) [Compound 8], the IC50 (pAMPK) is reported as greater than 10 µg/mL.
`Cc1ccccc1OCC(O)CN(Cc1ccccc1)Cc1ccccc1` (centres unmarked) [Compound 9] gave an IC50 (pAMPK) of 1 to 10 µg/mL (≈ 2.77 to 27.7 µM).
Molecule `CC1CN(Cc2ccc(OCC(O)CN(C)Cc3ccccc3)cc2)C1` (centres unmarked) [Compound 10] has an IC50 (pAMPK) greater than 10 µg/mL.
`OC(CNC(c1ccccc1)c1ccccc1)COc1ccc(F)cc1` (centres unmarked) [Compound 11] showed an IC50 (pAMPK) of 1 to 10 µg/mL (≈ 2.85 to 28.5 µM).
`OC(CNC(c1ccccc1)c1ccccc1)COc1ccccc1` (centres unmarked) [Compound 13] gave an IC50 (pAMPK) of 1 to 10 µg/mL (≈ 3 to 30 µM).
Work on `OC(CNCC(c1ccccc1)c1ccccc1)COc1ccccc1` (centres unmarked) [Compound 14] yielded an IC50 (pAMPK) of 1 to 10 µg/mL (≈ 2.88 to 28.8 µM).
In the case of `OC(CNC1c2ccccc2Oc2ccccc21)COc1ccccc1` (centres unmarked) [Compound 15], the IC50 (pAMPK) is reported as greater than 10 µg/mL.
`OC(COc1ccccc1)CN(Cc1ccccc1)Cc1ccccc1` (centres unmarked) [Compound 16] showed an IC50 (pAMPK) of 1 to 10 µg/mL (≈ 2.88 to 28.8 µM).
`COc1ccc(OCC(O)CNCC(c2ccccc2)c2ccccc2)cc1` (centres unmarked) [Compound 17] was tested, and the IC50 (pAMPK) was 1 to 10 µg/mL (≈ 2.65 to 26.5 µM).
Work on `OC(CNC(c1ccccc1)c1ccccc1)COc1ccc(C2CCCCC2)cc1` (centres unmarked) [Compound 18] yielded an IC50 (pAMPK) of 1 to 10 µg/mL (≈ 2.41 to 24.1 µM).
`OC(COc1ccc(C2CCCCC2)cc1)CN(Cc1ccccc1)Cc1ccccc1` (centres unmarked) [Compound 19] showed an IC50 (pAMPK) of 1 to 10 µg/mL (≈ 2.33 to 23.3 µM).
Work on `OC(CNCC(c1ccccc1)c1ccccc1)COc1ccc(C2CCCCC2)cc1` (centres unmarked) [Compound 20] yielded an IC50 (pAMPK) greater than 10 µg/mL.
Molecule `O=C(c1ccccc1)c1ccc(OCC(O)CN(Cc2ccccc2)Cc2ccccc2)cc1` (centres unmarked) [Compound 21] has an IC50 (pAMPK) greater than 10 µg/mL.
`OC(COc1ccc(-c2ccccn2)cc1)CN(Cc1ccccc1)Cc1ccccc1` (centres unmarked) [Compound 22] showed an IC50 (pAMPK) greater than 10 µg/mL.
Work on `OC(CN(Cc1ccccc1)Cc1ccccc1)c1ccc2ccccc2c1` (centres unmarked) [Compound 24] yielded an IC50 (pAMPK) of 1 to 10 µg/mL (≈ 2.72 to 27.2 µM).
`OC(CCc1ccccc1)CN(Cc1ccccc1)Cc1ccccc1` (centres unmarked) [Compound 25] gave an IC50 (pAMPK) greater than 10 µg/mL.
`OC(COc1ccc(C(F)(F)F)cc1)CN1CCc2ccccc2C1` (centres unmarked) [Compound 26] gave an IC50 (pAMPK) greater than 10 µg/mL.
Molecule `OC(CNc1ccc(C(F)(F)F)cc1)CNc1ccc(C(F)(F)F)cc1` [Compound 27] has an IC50 (pAMPK) greater than 10 µg/mL.
`OC(CNc1ccc(F)cc1)COc1ccc(F)cc1` (centres unmarked) [Compound 28] showed an IC50 (pAMPK) greater than 10 µg/mL.
With `CN(C)C(=N)N=C(N)N` [metformin, reference compound] the “concentration range increasing pAMPK phosphorylation and downstream substrate ACC phosphorylation” value (phospho-AMPK; Beas2b, glucose-free media, 18 h) was “millimolar”.
